In US20130197032A1, “[…] COMPOUNDS FOR THE TREATMENT OF NEUROLOGICAL AND […] DISORDERS” (A. CARLSSON RESEARCH AB, priority 2010, published 2013):
Read-outs that look alike come from different tables or passages of the source.

Assays:
[1] = molecular target: T1, D2 receptors (Homo sapiens, UniProt P14416); assay: R-SAT functional assay at D2; assay type: cell-based; set-up: expressed in transfected cells; host or cells: NIH-3T3; conditions: for R-SAT Eff(%): percent response of reference ligand pergolide
[2] = molecular target: dopamine D2/D3 receptors; conditions: read-out: Ki, affinity for dopamine D2/D3 receptors; in vitro binding studies, background; cited from earlier work
[3] = molecular target: T1, D2 receptors; assay: Dissociation rate of dopamine from D2 receptors (off-rate assay); assay type: binding; conditions: data not shown
[4] = molecular target: T2, human 5-HT1D receptor (Homo sapiens, UniProt P28221); assay: R-SAT assay 5-HT1D; assay type: cell-based; conditions: Table 3, 5-HT1D; for Eff (%): percent response of reference 5-CT
T2 construct: expressed in transfected cells; host or cells: NIH/3T3

[5] = molecular target: human dopamine transporter (DAT) (Homo sapiens, UniProt Q01959); assay: Equilibrium radioligand binding to DAT; conditions: displacement of 125I-RTI-55
Procedure: (§1) Cells were not centrifuged following cell scraping, but were collected directly into the ice-cold nitrogen cavitation chamber.
(§2) Membranes were prepared as described above. […] Binding reactions were terminated by filtration through UniFilter-96GF/B filters (from Perkin-Elmer, presoaked with 0.1% polyethylenimine for 1 h) with a Brandel 96-well harvester. Filters were washed with ice-cold wash buffer (50 mM Tris, 120 mM NaCl, pH7.4; 500 ml/plate) and then allowed to air-dry for 30 min. 50 μl MacrosScint-20 scintillation cocktail was added to each well, the plates were sealed, and then counted on a Top-Count (Packard).

[6] = molecular target: human serotonin transporter (SERT) (Homo sapiens, UniProt P31645); conditions: displacement of 3H-Imipramine
Procedure: as §1, §2

[7] = molecular target: human 5-HT1B receptor (Homo sapiens, UniProt P28222); assay: R-SAT assay 5-HT1B; assay type: cell-based; conditions: Table 3, 5-HT1B; for Eff (%): percent response of reference 5-CT
[8] = molecular target: human 5-HT2A receptors (Homo sapiens, UniProt P28223); assay: R-SAT functional assay at 5-HT2A; assay type: cell-based; set-up: expressed in transfected cells; host or cells: NIH-3T3; conditions: for R-SAT Eff(%): percent response of reference ligand 5-CT; for Eff (%): percent response of reference 5-CT; for potency at 5-HT2A receptors compared with D2 receptors: comparison of Table 1 and Table 2
[9] = molecular target: T3, human M3 receptor (Homo sapiens, UniProt P20309); assay: R-SAT assay M3; assay type: cell-based; conditions: Table 3, M3; percent response of reference Carbachol
T3 construct: expressed in transfected cells; host or cells: NIH/3T3

[10] = molecular target: T4, human alpha1A receptor (Homo sapiens, UniProt P35348); assay: R-SAT assay α1A; assay type: cell-based; conditions: Table 3, α1A; percent response of reference Phenylephrine
T4 construct: expressed in transfected cells; host or cells: NIH/3T3 cells, transient transfection, pSI vector
T4 sequence (P35348 1-466): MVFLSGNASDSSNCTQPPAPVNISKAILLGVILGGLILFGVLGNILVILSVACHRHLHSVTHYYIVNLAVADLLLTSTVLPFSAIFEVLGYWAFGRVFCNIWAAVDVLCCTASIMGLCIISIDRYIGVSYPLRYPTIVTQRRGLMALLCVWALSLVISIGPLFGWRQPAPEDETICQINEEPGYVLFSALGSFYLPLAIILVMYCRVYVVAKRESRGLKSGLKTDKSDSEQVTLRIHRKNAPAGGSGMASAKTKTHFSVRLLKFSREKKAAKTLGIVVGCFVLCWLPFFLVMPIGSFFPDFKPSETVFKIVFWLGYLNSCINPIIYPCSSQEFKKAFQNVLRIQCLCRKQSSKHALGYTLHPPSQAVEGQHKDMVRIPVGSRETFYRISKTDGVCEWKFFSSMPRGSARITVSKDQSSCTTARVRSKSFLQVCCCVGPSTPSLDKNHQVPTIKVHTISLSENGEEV

[11] = molecular target: human 5-HT6 receptor (Homo sapiens, UniProt P50406); assay: R-SAT assay 5-HT6; assay type: cell-based; conditions: Table 3, 5-HT6
[12] = molecular target: T5, human D1 receptor (Homo sapiens, UniProt P21728); assay: R-SAT assay D1; assay type: cell-based; conditions: Table 3, D1; percent response of reference SKF 38393
T5 construct: expressed in transfected cells; host or cells: NIH-3T3 (inferred: R-SAT host; D1 is in neither method list of b200)

[13] = test system: DOI-induced head twitches in mice; assay: Antagonism of DOI-induced head twitch response in mice; assay type: in vivo; conditions: DOI 1 mg/kg ip, 75 or 150 μmol/kg ip
Procedure: The animals used in the head twitch experiments were individually placed in Macrolon type II cages and allowed to habituate to these test cages during 30 minutes before the video registration of behavior began. […] The animals were videotaped for 10 minutes; the behavior was scored during the first 5 minutes. The number of head twitches was counted from the videotapes by a person blind to the treatment.
The purpose of the second experiment was to investigate whether the OSU6162 enantiomers would be able to counteract DOI-induced head twitches. […] The mice were habituated to the test cages during 30 minutes before the video registration of behavior began. All compounds were administered 10 min before the registration of behavior started. DOI was given in dose of 1 mg/kg (ip) throughout. […] In b) the interaction between (+)-OSU6162 (75 or 150 μmol/kg ip) and DOI is shown. In c) the interaction between (−)- or (+)-OSU6162 (75 μmol/kg ip) and DOI is shown.

[14] = molecular target: T1, D2 receptors; assay: BRET2 functional antagonism of dopamine at D2 (Schild analysis); assay type: cell-based; set-up: expressed in transfected cells; host or cells: HEK-293T
Procedure: BRET-2 signals were measured using the multiplate reader Mithras 940LB (Berthold Technologies, Bad Wildbad, Germany) and were calculated as the ratio between the Renilla luciferase emission and the GFP2 emission corrected by the background emissions of non-transfected cells.
A Schild plot (B) was constructed using the EC50 values derived from the curves in (A). The Schild plot was fitted using linear regression in GraphPad Prizm.

[15] = molecular target: human D4 (variant 4.2) receptor (Homo sapiens, UniProt P21917, DEL265-296); assay type: cell-based
[16] = molecular target: 5-HT2B receptors (Homo sapiens, UniProt P41595); assay: PI hydrolysis assay on 5-HT2B receptors
Procedure: After lysing the cells with 50 μl of 0.1M formic acid, 20 μl each cell lysate was mixed with 80 μl (1 mg) RNA Binding YSi-SPA beads (GE Healthcare, Chalfont St. Giles, UK) on PICO plates (PerkinElmer) and counted on a TopCount (Packard).

[17] = molecular target: T6, human 5-HT7 receptor (Homo sapiens, UniProt P34969); assay: R-SAT assay 5-HT7; assay type: cell-based; conditions: Table 3, 5-HT7; percent response of reference 5-CT
T6 construct: expressed in transfected cells; host or cells: NIH/3T3

[18] = Sonesson's thesis 1995; cited from earlier work
[19] = negative logarithm of EC50 in molar, read-out: pEC50 (converted)
[20] = Table 1, negative logarithm of EC50 in molar (M), NIH3T3 cells, mean ± SEM, read-out: R-SAT pEC50 (converted)
[21] = Table 3, 5-HT2A, negative logarithm of EC50 in molar, read-out: pEC50 (converted)

T1 sequence (P14416 1-414 isoform P14416-2): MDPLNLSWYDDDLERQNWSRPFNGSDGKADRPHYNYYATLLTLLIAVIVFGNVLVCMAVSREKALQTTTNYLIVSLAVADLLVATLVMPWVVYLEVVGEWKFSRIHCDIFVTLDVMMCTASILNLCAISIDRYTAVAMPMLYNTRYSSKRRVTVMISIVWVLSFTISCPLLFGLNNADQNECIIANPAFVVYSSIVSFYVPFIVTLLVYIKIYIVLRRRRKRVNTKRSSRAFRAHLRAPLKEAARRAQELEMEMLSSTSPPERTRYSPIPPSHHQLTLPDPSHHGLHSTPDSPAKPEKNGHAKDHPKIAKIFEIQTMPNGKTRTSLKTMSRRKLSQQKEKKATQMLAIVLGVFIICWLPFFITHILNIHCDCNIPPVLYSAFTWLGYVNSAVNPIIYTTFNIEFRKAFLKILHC
Sequence of human 5-HT1B receptor (P28222 whole entry): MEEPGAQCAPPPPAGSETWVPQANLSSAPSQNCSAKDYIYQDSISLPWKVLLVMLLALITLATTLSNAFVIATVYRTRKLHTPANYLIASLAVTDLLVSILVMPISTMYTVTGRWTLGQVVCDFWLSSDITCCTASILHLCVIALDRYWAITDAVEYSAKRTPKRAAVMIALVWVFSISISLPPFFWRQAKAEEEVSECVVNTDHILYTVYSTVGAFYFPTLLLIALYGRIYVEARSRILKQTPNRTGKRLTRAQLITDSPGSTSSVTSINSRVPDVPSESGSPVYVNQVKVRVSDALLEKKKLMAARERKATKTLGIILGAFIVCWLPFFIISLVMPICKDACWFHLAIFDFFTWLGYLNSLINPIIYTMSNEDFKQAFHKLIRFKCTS
T2 sequence (P28221 whole entry): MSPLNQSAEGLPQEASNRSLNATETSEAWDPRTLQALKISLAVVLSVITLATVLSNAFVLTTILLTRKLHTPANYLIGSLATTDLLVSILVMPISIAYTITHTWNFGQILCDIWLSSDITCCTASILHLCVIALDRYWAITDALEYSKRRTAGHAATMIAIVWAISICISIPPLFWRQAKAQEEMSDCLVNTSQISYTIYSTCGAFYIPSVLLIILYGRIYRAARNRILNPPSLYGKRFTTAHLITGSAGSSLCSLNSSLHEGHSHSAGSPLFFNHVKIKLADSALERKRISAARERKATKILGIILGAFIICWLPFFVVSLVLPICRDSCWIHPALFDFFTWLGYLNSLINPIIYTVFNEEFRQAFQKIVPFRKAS
Sequence of human 5-HT2A receptors (P28223 whole entry): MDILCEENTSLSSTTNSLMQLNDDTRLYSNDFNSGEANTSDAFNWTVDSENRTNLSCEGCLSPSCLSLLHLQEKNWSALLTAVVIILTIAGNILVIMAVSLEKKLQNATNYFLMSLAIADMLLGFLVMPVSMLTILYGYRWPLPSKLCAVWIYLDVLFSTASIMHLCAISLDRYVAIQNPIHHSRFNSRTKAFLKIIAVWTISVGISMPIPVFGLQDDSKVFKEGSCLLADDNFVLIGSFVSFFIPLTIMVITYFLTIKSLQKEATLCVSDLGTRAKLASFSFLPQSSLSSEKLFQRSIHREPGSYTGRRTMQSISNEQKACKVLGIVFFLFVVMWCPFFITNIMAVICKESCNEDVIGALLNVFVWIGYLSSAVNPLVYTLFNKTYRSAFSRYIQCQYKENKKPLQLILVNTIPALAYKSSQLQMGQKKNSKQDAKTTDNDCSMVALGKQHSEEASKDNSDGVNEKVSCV
Sequence of 5-HT2B receptors (P41595 whole entry): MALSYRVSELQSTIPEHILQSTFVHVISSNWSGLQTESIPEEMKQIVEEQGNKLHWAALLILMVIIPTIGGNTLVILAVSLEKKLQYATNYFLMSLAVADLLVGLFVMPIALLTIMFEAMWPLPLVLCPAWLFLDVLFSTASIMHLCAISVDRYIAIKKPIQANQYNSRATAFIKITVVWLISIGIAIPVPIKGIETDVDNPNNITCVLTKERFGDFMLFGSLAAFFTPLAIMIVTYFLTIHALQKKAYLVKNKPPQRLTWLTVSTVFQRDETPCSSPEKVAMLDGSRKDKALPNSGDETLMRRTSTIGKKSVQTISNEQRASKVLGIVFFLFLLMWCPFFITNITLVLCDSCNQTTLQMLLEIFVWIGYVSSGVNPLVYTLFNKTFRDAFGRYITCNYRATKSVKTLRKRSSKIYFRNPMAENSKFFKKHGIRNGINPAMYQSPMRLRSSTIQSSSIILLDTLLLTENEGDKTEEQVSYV
T3 sequence (P20309 whole entry): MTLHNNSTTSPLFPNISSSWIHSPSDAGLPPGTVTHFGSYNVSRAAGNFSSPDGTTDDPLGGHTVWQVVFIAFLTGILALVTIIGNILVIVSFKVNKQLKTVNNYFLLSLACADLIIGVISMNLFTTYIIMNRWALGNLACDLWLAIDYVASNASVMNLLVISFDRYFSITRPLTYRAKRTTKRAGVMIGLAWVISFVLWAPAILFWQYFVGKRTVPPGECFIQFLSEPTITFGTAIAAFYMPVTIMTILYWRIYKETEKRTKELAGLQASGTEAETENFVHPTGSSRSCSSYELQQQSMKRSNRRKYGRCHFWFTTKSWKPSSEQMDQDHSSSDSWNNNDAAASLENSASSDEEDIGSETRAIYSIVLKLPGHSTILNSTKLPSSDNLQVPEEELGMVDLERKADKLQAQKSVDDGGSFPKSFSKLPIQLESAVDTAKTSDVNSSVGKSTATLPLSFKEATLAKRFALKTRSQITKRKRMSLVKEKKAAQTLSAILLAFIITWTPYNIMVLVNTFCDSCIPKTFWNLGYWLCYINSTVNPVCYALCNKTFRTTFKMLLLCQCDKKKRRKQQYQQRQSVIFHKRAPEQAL
Sequence of human serotonin transporter (SERT) (P31645 whole entry): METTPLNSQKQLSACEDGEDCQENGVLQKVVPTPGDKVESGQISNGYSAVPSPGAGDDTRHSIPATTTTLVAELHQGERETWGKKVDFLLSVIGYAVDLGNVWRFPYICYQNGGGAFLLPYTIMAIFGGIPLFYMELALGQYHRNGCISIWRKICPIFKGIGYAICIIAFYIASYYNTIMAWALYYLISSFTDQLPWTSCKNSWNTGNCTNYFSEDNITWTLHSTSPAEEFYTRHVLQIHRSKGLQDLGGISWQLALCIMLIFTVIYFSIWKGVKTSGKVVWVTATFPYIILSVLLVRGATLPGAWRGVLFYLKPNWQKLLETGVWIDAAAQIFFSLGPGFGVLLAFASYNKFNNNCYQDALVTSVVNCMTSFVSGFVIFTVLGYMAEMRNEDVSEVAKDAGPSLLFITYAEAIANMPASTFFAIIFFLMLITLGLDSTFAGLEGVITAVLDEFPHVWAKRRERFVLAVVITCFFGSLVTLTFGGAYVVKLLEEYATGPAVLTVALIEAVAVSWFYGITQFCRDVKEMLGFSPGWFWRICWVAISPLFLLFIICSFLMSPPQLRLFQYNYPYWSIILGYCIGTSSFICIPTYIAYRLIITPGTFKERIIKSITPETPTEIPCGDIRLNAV
Sequence of human dopamine transporter (DAT) (Q01959 whole entry): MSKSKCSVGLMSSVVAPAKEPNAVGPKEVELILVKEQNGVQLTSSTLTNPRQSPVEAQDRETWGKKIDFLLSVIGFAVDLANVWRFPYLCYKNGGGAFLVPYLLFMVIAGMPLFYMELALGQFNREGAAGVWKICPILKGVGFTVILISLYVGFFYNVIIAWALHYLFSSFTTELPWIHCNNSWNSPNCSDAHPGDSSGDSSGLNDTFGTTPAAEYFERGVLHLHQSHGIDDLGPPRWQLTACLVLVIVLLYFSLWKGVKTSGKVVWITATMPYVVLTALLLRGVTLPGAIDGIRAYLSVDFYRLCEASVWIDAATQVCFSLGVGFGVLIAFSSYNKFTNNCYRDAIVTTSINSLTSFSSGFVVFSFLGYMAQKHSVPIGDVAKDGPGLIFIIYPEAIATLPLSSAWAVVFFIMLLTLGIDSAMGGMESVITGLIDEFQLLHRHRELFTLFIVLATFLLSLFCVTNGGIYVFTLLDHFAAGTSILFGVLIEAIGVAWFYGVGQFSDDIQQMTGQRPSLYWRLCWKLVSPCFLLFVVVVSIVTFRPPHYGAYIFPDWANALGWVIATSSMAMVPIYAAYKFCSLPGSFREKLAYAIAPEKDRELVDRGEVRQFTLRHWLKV
Sequence of human 5-HT6 receptor (P50406 whole entry): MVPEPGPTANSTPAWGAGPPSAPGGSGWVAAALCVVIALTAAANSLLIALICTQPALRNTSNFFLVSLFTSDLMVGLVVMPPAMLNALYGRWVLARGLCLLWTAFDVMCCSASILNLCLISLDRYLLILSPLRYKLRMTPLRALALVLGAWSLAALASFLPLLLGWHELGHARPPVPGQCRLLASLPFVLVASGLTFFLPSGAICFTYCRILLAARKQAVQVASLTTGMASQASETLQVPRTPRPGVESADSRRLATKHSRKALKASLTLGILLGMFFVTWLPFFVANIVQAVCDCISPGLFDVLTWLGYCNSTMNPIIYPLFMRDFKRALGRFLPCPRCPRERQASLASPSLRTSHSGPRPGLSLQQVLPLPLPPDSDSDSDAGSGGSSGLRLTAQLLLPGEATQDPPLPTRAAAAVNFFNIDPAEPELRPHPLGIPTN
T5 sequence (P21728 whole entry): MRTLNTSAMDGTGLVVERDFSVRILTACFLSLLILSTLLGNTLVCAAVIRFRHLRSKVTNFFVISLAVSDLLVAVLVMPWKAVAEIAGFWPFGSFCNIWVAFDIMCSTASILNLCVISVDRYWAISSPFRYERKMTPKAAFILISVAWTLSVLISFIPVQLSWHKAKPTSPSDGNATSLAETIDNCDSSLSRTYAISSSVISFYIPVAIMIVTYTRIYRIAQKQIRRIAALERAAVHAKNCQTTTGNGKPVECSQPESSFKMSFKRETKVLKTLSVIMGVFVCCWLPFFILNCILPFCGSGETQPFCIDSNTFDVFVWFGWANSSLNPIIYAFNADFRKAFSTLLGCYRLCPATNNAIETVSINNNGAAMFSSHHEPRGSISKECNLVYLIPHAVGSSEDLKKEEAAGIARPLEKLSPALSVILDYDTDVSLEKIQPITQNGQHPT

Row | SMILES | Eff (%) [4] [%] | Inh % [5] [%] | Inh % [6] [%] | Eff (%) [7] [%] | EC50 [8, 20] [M] | R-SAT Eff(%) ([8]; Table 1, mean ± SEM) | EC50 [8, 21] [M] | Eff (%) ([8]; Table 3, 5-HT2A) | potency at 5-HT2A receptors compared with D2 receptors [8] | Eff (%) [9] [%] | Eff (%) [10] [%] | antagonism of DOI-induced head twitches [13] | other results
1 | CCCN1CCC[C@@H](c2cccc(S(C)(=O)=O)c2)C1 [(−)-OSU6162, (3S)-3-[3-(methylsulfonyl)phenyl]-1-propylpiperidine] | 132 | 6 | 26 | 75 | 6.31e-07 | 113 ± 18 | 6.31e-07 | 113 | equipotent at D2 and 5-HT2A receptors | 0 | 15 | significantly antagonized DOI-induced head twitches | R-SAT pEC50 ([1]; Table 2, negative logarithm of EC50 in molar, NIH3T3 cells, mean ± SEM): 6.1 ± 0.3; EC50 ([1]; Table 2, negative logarithm of EC50 in molar, NIH3T3 cells, mean ± SEM, read-out: R-SAT pEC50 (converted)): 794 nM; R-SAT Eff(%) ([1]; Table 2, mean ± SEM): 30%; R-SAT Eff(%) ([1]; Table 2, mean ± SEM, listed as (−)-OSU-6162): 36 ± 3%; EC50 ([1]; Table 3, D2, negative logarithm of EC50 in molar, read-out: pEC50 (converted)): 794 nM; Eff (%) ([1]; Table 3, D2, percent response of reference Pergolide): 36%; Ki [2]: 447 nM; effect on dissociation rate of dopamine from D2 receptors [3]: did not significantly alter; EC50 ([4]; negative logarithm of EC50 in molar): 5010 nM; EC50 [7, 19]: 2510 nM; EC50 [11, 19]: > 10000 nM; Eff (%) ([11]; percent response of reference 5-CT): 52%; Eff (%) [12]: 11%; slope of the Schild analysis ([14]; functional antagonism of dopamine in BRET2 assays): nearly unity; Kb ([14]; read-out: pKb from the Schild analysis (converted)): 1260 nM; Eff (%) [15]: 40%; EC50 [16]: 631 nM; efficacy in PI hydrolysis assays on 5-HT2B receptors ([16]; data not shown): 24%; Eff (%) [17]: 7%
2 | CCCN1CCC[C@H](c2cccc(S(C)(=O)=O)c2)C1 [(+)-OSU6162, (3R)-3-[3-(methylsulfonyl)phenyl]-1-propylpiperidine] | 28 | 5 | 38 | 20 | 1.58e-06 | 139 ± 14 | 1.58e-06 | 139 | more potent at 5-HT2A than D2 receptors | 6 | 22 | neither 75 nor 150 μmol/kg of (+)-OSU6162 significantly antagonized DOI-induced head twitches | Emax at 50 µM ([1]; read-out: Eff (%), response at 50 μM): 77%; Emax at 50 µM ([1]; read-out: R-SAT Eff(%), response at 50 μM): 77%; change in behavioral activity [18]: not to induce any change in behavioral activity
